Results published in patent US20240174642A1, “HETEROCYCLIC COMPOUNDS CAPABLE OF ACTIVATING STING” (Boehringer Ingelheim International GmbH, priority 2022, published 2024).

Legend:
dog STING (dSTING) = experiment: Dog differential scanning fluorimetry (DSF) assay, thermal shift of dog STING protein; assay type: binding; settings: 100 μM compound, 3 μM recombinant dog STING (residues 149 to 375), 5× SYPRO Orange, 2% DMSO
Source text: The protein used for the biophysical experiments was a recombinant dog STING protein comprising its cytosolic cGAMP binding ectodomain. A codon optimized DNA sequence (for expression in Escherichia coli) encoding amino acid residues 149 to 375 of dog STING was synthesized by GeneArt (Regensburg, Germany) and inserted into a pET17b E. coli expression vector. The protein construct encodes an N-terminal 8× His-tag followed by tobacco etch virus protease (TEV) cleavage site and the above STING gene sequence. The resulting protein sequence for the used dog STING protein (SEQ ID No. 1) is listed below:
For expression of the above recombinant dog STING, the construct was transformed into E. coli BL21 DE3 strain and grown in shake flasks in LB-medium at 15° C. Expression was induced by addition of isopropyl β-D-1-thiogalactopyranoside to a final concentration of 1 mM and cultures shaken overnight. Cell pellets were centrifuged and stored at −70° C. until further use. Protein was purified by cell thawing in lysis buffer (20 mM TRIS-HCl, pH 8, 500 mM NaCl, 1 mM DTT, 0.5 mg/ml lysozyme, Complete Protease Inhibitor (Roche) and DNase (Roche)), followed by metal affinity purification using Ni-NTA resins and elution buffer consisting of 20 mM TRIS-HCl, pH 8, 500 mM NaCl, 1 mM DTT, 300 mM imidazole. Cleavage of the His-Tag using TEV-protease took place during dialysis in size exclusion buffer (20 mM TRIS-HCl, pH 8, 100 mM NaCl, 1 mM DTT) over night. To further purify the target protein a reverse Nickel affinity column was used and the flow through was applied to a size exclusion chromatography. The peak fraction was collected and concentrated to 5 mg/mL.
Dye fluorescence is quenched in aqueous environment and increases upon association of the dye with the hydrophobic parts of the unfolding protein. […] The inflection point of the curve represents the “melting” temperature of the protein (Tm) which is calculated numerically using the Boltzmann equation.
The thermal stability of the dog STING protein was measured in assay buffer containing 20 mM Tris, 150 mM NaCl at pH7.5. The assay uses 384-Well qPCR Plates (Catalog #781358, BRAND), Microseal®‘B’ Adhesive Seals for PCR Plates (Catalog #MSB-1001, BIO-RAD) and was run on a CFX384 Real-Time System (Bio-Rad). A DMSO stock solution of SYPRO orange (SIGMA 55692-500UL) was prepared. Compound stock solutions (10 mM in DMSO) were diluted 1:2 in DMSO to an intermediate compound concentration of 5 mM and then further diluted 1:40 in assay buffer resulting in a compound concentration of 125 μM and 2.5% DMSO. Fluorescent dye stock solution (5000× SYPRO Orange) was then mixed with target protein and buffer to a concentration of 15 μM Protein and 25× SYPRO Orange. 2 μl of this protein-dye-mixture was added to 8 μl compound solution. Final volume was 10 μL. 3-6 well positions were used as negative control (protein with 2% DMSO). The plates were prepared for duplicate measurement and centrifuged for 2 min at 1000 g. In the measurement, 160 cycles of 0.5° C. were used (temperature ramp 15 s/cycle, 15° C. to 95° C.).
Final Assay concentrations for compound characterization were 100 μM compound, 3 μM target protein, 5× SYPRO Orange, and 2% DMSO in 10 μl. All dispensing steps were performed using a HamiltonStar pipetting robot (Hamilton).
Dissociation curves were processed in Bio-Rad CFX Manager. Peak type was set to “negative”. Compound codes for screen were assigned in the plate layout.
Two replicates of TM measurements were averaged, and the standard deviation was calculated. In cases of SD>1.5° C. the measurement was repeated.
The melting point (Tm) obtained for STING protein alone was subtracted from T obtained for protein incubated with ligand to generate ΔTm values.

STING = experiment: Dog whole blood (dWB) assay, IFNb secretion by ELISA; assay type: cell-based; settings: Canis lupus familiaris, 4 h incubation at 37° C., % control relative to cGAMP stimulated control, read-out: EC50, cytokine secretion in dog whole blood (dWB) culture system as determined by canine Interferon-beta (IFNb) ELISA
Description: In this assay, freshly collected canine blood is incubated with a STING agonist, and interferon beta levels in the supernatant are quantified by ELISA. […] In accordance with the invention, a combination of a high dDSF and low dWB is especially favorable.
For the detection of STING activation in physiological environment dog whole blood (dWB) was stimulated by the cyclic dinucleotide cGAMP or a test compound. Pathway activity was monitored by measuring the IFNb production.
Compounds were delivered as 10 mM DMSO solution, diluted and transferred by using an Echo acoustic dispenser to the 384well assay plate (Greiner #781182), pre-filled with 10 μl 1× HBSS in each well (10× HBSS (+Ca/+Mg), #14065-049, Gibco). Typically, 8 concentrations were used with the highest concentration at 10 μM in the final assay volume followed by approximately 1:4 dilution steps. DMSO concentration was set to 0.1% in the final assay volume. The 384-well assay plate contained 20 test compounds and DMSO in control and cGAMP standard wells. The dog whole blood was collected as Na-Citrate blood (e.g., 3.8% in Monovettes from Sarstedt) and kept at 4° C. overnight until use in the assay. 80 μl of the whole blood samples were transferred to each well of the 384-well assay plates filled with compound/1×HBSS. Blood plates were kept at room temperature for 60 minutes and continuous shaking with 450 rpm, covered with the lid, but not sealed. A 10× cGAMP assay solution was diluted from a 2 mM stock solution in 1×HBSS immediately before use at room temperature. 10 μl of the 10× cGAMP/HBSS were added to the high control wells, whereas HBSS only was added to all compound and low control wells. After covering assay plates with the lid, blood plates were kept for a 4 h incubation at 37° C. in the incubator, without shaking. For the detection of IFNb in dog plasma the ELISA Kit for Canine Interferon Beta (Biotrend #SEA222Ca) was used. Whole blood assay plates were centrifuged at 1000 g for 10 minutes at 8° C. 40 μl of supernatant was transferred with a 96 well pipetting robotics from the 384 well whole blood plate to the corresponding 96 well ELISA plate, pre-filled with […] assay diluent in each well. Plates were sealed with microplate seals and kept at 4° C. overnight again. ELISA plates were brought to room temperature, followed by a 1 h incubation at 37° C. in the incubator. Detection Reagent A working solution was prepared by diluting Detection Reagent A 1:100 in Assay Reagent A. Liquid was then removed from the 96 well ELISA plate to add 100 μL Detection Reagent A working solution to each well. ELISA plates were covered with the plate sealer and incubated for 1 hour at 37° C. in the incubator. The 1× Wash buffer was prepared by diluting the 30× Wash Buffer Concentrate in H2O. Detection Reagent B working solution was prepared by diluting Detection Reagent B 1:100 in Assay Reagent B. The ELISA plates were washed three times with 350 μl wash buffer and afterwards inverted and blotted against absorbent paper to remove any liquid. 100 μL of Detection Reagent B working solution was added to each well of the ELISA plates, which are then covered with the plate sealer and incubated for 30 minutes at 37° C. in the incubator. After incubation the ELISA assay plates were washed five times with 350 μl wash buffer and were again inverted and blotted against absorbent paper to remove any remaining liquid. 90 μL of TMB Substrate was added to each well of the ELISA plates, which were then covered with the plate sealer and incubated for 15 minutes at 37° C. in the incubator. The reaction was stopped by adding 50 μL stop solution and absorbance was measured at 450 nm immediately.
For data evaluation and calculation, % control calculation of each well was based on the mean of high (cGAMP stimulated control) and mean of low (unstimulated control) controls by using the following standard 4 parameter logistic regression formula: […]

Row | Compound | Delta TM, interaction with dog STING as determined by DSF (dDSF) (dog STING (dSTING)) | EC50 (STING)
1 | Cc1cccc2c(-c3cccc4nn(C)cc34)nn(-c3ccc(N4C[C@@H]5CC[C@H]4C[C@H]5C(=O)O)nc3)c12 (single isomer, unassigned) [Example 7] | 15.5 °C | 
2 | Cc1cccc2c(-c3cccc4nn(C)cc34)nn(-c3ccc(N4C[C@H]5CC[C@@H]4C[C@@H]5C(=O)O)nc3)c12 (single isomer, unassigned) [Example 8] | 24.8 °C | 
3 | Cc1cccc2c(-c3cccc4nn(C)cc34)nn(-c3ccc(N4C[C@@H]5CC[C@H]4C[C@@H]5C(=O)O)nc3)c12 (single isomer, unassigned) [Example 9] | 33.8 °C | 652 nM
4 | Cc1cccc2c(-c3cccc4nn(C)cc34)nn(-c3ccc(N4C[C@H]5CC[C@@H]4C[C@H]5C(=O)O)nc3)c12 (single isomer, unassigned) [Example 10] | 35.8 °C | 185 nM
5 | CC(=O)N1C[C@H]2CC[C@@H]1CN2c1ccc(-n2nc(-c3cccc4nn(C)cc34)c3cccc(C)c32)cn1 (single isomer, unassigned) [Example 14] | 23.8 °C | 2920 nM
6 | CC(=O)N1C[C@@H]2CC[C@H]1CN2c1ccc(-n2nc(-c3cccc4nn(C)cc34)c3cccc(C)c32)cn1 (single isomer, unassigned) [Example 15] | 30.0 °C | 95.1 nM
7 | Cc1cccc2c(-c3cccc4nn(C)cc34)nn(-c3ccc(N4C[C@@H]5C[C@H]4C[C@H]5C(=O)O)nc3)c12 (single isomer, unassigned) [Example 18] | 31.5 °C | 519 nM
8 | Cc1cccc2c(-c3cccc4nn(C)cc34)nn(-c3ccc(N4C[C@H]5C[C@@H]4C[C@@H]5C(=O)O)nc3)c12 (single isomer, unassigned) [Example 19] | 33.5 °C | 278 nM
9 | Cc1cccc2c(-c3cccc4nn(C)cc34)nn(-c3ccc(N4CC[C@H](CC(=O)O)C4)nc3)c12 [Example 1, 2-[(3R)-1-(5-{2″,7-dimethyl-1H,2″H-[3,4″-biindazol]-1-yl}pyridin-2-yl)pyrrolidin-3-yl]acetic acid] |  | 308 nM
10 | Cc1cccc2c(-c3cccc4nn(C)cc34)nn(-c3ccc(N4CC[C@@H](CC(=O)O)C4)nc3)c12 [Example 2, 2-[(3S)-1-(5-{2″,7-dimethyl-1H,2″H-[3,4″-biindazol]-1-yl}pyridin-2-yl)pyrrolidin-3-yl]acetic acid] | 33.3 °C | 212 nM
11 | Cc1cccc2c(-c3cccc4nn(C)cc34)nn(-c3ccc(N4CCOC(CC(=O)O)C4)nc3)c12 (centres unmarked) [Example 3, 2-[4-(5-{2′,7-dimethyl-1H,2′H-[3,4′-biindazol]-1-yl}pyridin-2-yl)morpholin-2-yl]acetic acid] | 26.1 °C | 3060 nM
12 | Cc1cccc2c(-c3cccc4nn(C)cc34)nn(-c3ccc(N4CC5CC4CC5C(=O)O)nc3)c12 (centres unmarked) [Example 4, 2-(5-{2″,7-dimethyl-1H,2″H-[3,4″-biindazol]-1-yl}pyridin-2-yl)-2-azabicyclo[2.2.1]heptane-5-carboxylic acid] | 29.0 °C | 704 nM
13 | Cc1cccc2c(-c3cccc4nn(C)cc34)nn(-c3ccc(N4CC5CCC4CC5C(=O)O)nc3)c12 (centres unmarked) [Example 6, 2-(5-{2′,7-dimethyl-1H,2′H-[3,4′-biindazol]-1-yl}pyridin-2-yl)-2-azabicyclo[2.2.2]octane-5-carboxylic acid] | 34.0 °C | 417 nM
